Article PMC3889466 (Journal of medicinal chemistry, 2013)

Assays:
A/M2 V27A = A/M2 V27A (Influenza A virus, UniProt P0DOF5, V27A); conditions: cited from earlier work
A/M2 S31N [1] = target: T1, A/M2 S31N (Influenza A virus, UniProt P0DOF5, S31N); conditions: conductance assay in M2-expressing oocytes; cited from earlier work
A/M2 S31N [2] = target: T1, A/M2 S31N; type: cell-based, influenza A/Udorn/72; conditions: pH 5.5

| SMILES | Activity against the V27A mutant form of A/M2 (in words) (A/M2 V27A) | Activity against the S31N mutant form of A/M2 (in words) (A/M2 S31N [1]) | A/M2 S31N Inhibition by 100 μM for 2 min (%) (A/M2 S31N [2]) |
| --- | --- | --- | --- |
| C1C2C1C1C3C4C5C6CC6C4C14CNCC54C23 (stereo not drawn) [Compound 11] | marginal activity |  |  |
| NC12C3CCC4C3C3C(CCC31)C42 [Compound 8] | did not show any activity |  |  |
| C1=CC2C3C4C5C=CC4C24CNCC54C13 [Compound 10] | marginal activity |  |  |
| CC12CC3CC1(C)CC3(N)C2 [Compound 6] | inactive | inactive |  |
| CC12CC3CC1(C)CC3(CN)C2 [Compound 7] | inactive | inactive |  |
| NCC12C3CCC4C3C3C(CCC31)C42 [Compound 9] | did not show any activity |  |  |
| CC12CC34CNCC3(C1)CC2(C)C4.Cl [Compound 14a, 7,8-Dimethyl-3-azatetracyclo[5.2.1.1^5,8.0^1,5]undecane hydrochloride] |  |  | 0 |
